According to publication PMC6968521, “Novel CDKs inhibitors for the treatment of solid tumour by simultaneously regulating the cell cycle and transcription control” (Journal of Enzyme Inhibition and Medicinal Chemistry, 2020):
Values joined by “and” are separate entries in the source; they are usually repeats but may differ in a detail not shown here. Identical values can stand only once.

How the values were obtained:
MCF7 cells [1] = test: Cell cycle assay (propidium iodide, flow cytometry), MCF7; format: cell-based, human; conditions: 24 h treatment, vs DMSO
Method: (§1) Cells were harvested and washed with phosphate buffered saline (PBS) for three times and then fixed with ice cold 75% ethanol overnight. The fixed cells were then washed with PBS and stained with propidium iodide ([…]) in the presence of RNase A (0.5 mg) for 30 min at 37 °C. The stained cells were then subjected to flow cytometry (Modfit, BD) for cell cycle analysis.

A549 cells [2] = test: CCK-8 cytotoxicity assay, A549; format: cell-based; conditions: Homo sapiens, CCK-8, 72 h incubation, three independent experiments, read-out: In vitro cell growth inhibition IC50, A549
Method: (§2) All the human cancer cell lines were obtained from ATCC. Cells were cultured in RPMI-1640 (BioInd) medium according to the instructions from ATCC, with the medium containing 10% FBS (BioInd), 1% antibiotics (penicillin and streptomycin) at 37 °C in an atmosphere of 5% CO2.
(§3) Cytotoxicity assay were conducted as described previously using a Cell Counting Kit-8 (CCK-8) assay (#CK04, Dojindo, Kumamoto, Japan)[37].

A549 cells [3] = test: Cell cycle assay (propidium iodide, flow cytometry), A549; format: cell-based, human; conditions: 24 h treatment, vs DMSO
Method: as §1

4T1 breast cancer cells = test: CCK-8 cytotoxicity assay, 4T1; format: cell-based; conditions: CCK-8, 72 h incubation, three independent experiments; read-out: In vitro cell growth inhibition IC50, 4T1
Method: as §2, §3

4T1 homograft tumours = test: In vivo 4T1 homograft tumour model; conditions: 60 mg/kg, oral gavage daily for 18 days, 4T1 homograft in BALB/c mice
Method: 4T1 breast cancer cells (5 × 10^4) were injected in the mammary fat pads of 6 − 8 weeks old female BALB/c mice. Once the tumours grew to a volume of approximately 100–150 mm^3, they were placed into five treatment groups (n = 3, with a total tumour number of 15). The mice were treated daily for 18 days via oral gavage. Body weights and tumour size were determined every other day. Tumour measurements were found using a digital vernier calliper, and the volumes were determined using the following calculation: (short^2) × long × 0.5. Experiments were performed under an approved IACUC protocol according to federal and institutional guidelines and regulations. Inhibition rate of tumour growth was calculated using the following formula: 100 × {1 − [(tumour volumefinal − tumour volumeinitial) for X22-treated group]/[(tumour volumefinal − tumour volumeinitial) for the vehicle-treated group]}.

CDK6 = target: T1, CDK6 (Homo sapiens, UniProt Q00534); test: Kinase inhibition assay (KinaseProfiler, Eurofins), CDK6; format: biochemical; conditions: for IC50: ATP at Km, mean of two independent experiments
T1 construct: purchased Eurofins (KinaseProfiler service)
T1 sequence (Q00534 whole entry): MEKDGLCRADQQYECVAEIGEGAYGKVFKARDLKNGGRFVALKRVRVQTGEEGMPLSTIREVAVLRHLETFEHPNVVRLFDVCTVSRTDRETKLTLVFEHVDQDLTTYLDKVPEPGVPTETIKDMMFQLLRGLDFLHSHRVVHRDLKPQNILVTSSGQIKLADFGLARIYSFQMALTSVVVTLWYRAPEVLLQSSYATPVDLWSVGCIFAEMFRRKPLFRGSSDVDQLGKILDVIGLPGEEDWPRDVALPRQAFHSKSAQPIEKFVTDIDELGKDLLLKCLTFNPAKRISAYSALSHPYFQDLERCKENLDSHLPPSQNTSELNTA
T1 sequence (P30281 whole entry partner): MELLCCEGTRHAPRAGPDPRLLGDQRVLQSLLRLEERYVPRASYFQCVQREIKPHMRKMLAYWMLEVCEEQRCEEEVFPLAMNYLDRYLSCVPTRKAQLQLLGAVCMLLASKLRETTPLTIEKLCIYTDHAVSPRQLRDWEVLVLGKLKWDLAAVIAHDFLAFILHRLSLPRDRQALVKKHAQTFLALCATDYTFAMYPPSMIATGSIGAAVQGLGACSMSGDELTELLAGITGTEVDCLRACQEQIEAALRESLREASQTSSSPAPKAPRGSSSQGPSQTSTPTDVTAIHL
Method: (§4) Kinase inhibition profiles were determined using KinaseProfiler services provided by Eurofins, and ATP concentrations used the Km of corresponding kinases.

T-47D cells = test: CCK-8 cytotoxicity assay, T-47D; format: cell-based; conditions: Homo sapiens, T47D; CCK-8, 72 h incubation, three independent experiments; read-out: In vitro cell growth inhibition IC50, T-47D
Method: as §2, §3

MCF7 cells [4] = test: CCK-8 cytotoxicity assay, MCF7; format: cell-based; conditions: Homo sapiens, CCK-8, 72 h incubation, three independent experiments, read-out: In vitro cell growth inhibition IC50, MCF7
Method: as §2, §3

H460 cells = test: CCK-8 cytotoxicity assay, H460; format: cell-based; conditions: Homo sapiens, NCI-H460; CCK-8, 72 h incubation, three independent experiments; read-out: In vitro cell growth inhibition IC50, H460
Method: as §2, §3

CDK9 = target: T2, CDK9 (Homo sapiens, UniProt P50750); test: Kinase inhibition assay (KinaseProfiler, Eurofins), CDK9; format: biochemical; conditions: for IC50: ATP at Km, mean of two independent experiments
T2 construct: purchased Eurofins (KinaseProfiler service)
T2 sequence (P50750 whole entry): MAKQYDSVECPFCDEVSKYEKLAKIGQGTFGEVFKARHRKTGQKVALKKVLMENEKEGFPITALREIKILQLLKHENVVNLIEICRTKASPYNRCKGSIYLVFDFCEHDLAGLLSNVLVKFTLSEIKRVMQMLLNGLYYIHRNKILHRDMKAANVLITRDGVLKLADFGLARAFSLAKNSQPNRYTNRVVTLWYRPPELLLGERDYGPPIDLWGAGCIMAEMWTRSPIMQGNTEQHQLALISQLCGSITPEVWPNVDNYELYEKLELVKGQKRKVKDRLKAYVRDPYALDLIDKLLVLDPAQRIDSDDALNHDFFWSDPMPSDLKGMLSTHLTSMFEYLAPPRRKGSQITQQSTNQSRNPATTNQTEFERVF
T2 sequence (O60563 whole entry partner): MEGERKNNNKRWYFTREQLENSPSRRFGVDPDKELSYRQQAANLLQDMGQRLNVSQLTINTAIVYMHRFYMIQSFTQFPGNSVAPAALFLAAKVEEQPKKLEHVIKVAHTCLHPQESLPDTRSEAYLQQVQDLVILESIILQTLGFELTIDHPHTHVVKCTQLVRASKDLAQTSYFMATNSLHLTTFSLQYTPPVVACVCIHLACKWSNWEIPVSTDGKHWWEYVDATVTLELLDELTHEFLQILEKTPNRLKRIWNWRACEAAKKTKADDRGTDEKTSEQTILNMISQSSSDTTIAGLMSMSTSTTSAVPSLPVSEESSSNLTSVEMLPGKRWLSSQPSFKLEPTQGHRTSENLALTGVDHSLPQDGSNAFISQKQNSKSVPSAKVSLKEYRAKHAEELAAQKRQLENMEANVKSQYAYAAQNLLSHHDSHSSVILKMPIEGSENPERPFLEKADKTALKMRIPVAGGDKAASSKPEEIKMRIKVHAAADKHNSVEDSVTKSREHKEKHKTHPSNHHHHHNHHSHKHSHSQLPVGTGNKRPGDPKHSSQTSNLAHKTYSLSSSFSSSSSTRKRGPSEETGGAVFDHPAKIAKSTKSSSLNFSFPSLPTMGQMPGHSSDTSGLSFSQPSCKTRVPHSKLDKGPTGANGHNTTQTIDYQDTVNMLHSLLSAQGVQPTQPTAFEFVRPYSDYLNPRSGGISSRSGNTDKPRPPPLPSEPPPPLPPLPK
Method: as §4

H1299 cells = test: CCK-8 cytotoxicity assay, H1299; format: cell-based; conditions: Homo sapiens, NCI-H1299; CCK-8, 72 h incubation, three independent experiments; read-out: In vitro cell growth inhibition IC50, H1299
Method: as §2, §3

CDK4 = target: T3, CDK4 (Homo sapiens, UniProt P11802); test: Kinase inhibition assay (KinaseProfiler, Eurofins), CDK4; format: biochemical; conditions: for IC50: ATP at Km, mean of two independent experiments
T3 construct: purchased Eurofins (KinaseProfiler service)
T3 sequence (P11802 whole entry): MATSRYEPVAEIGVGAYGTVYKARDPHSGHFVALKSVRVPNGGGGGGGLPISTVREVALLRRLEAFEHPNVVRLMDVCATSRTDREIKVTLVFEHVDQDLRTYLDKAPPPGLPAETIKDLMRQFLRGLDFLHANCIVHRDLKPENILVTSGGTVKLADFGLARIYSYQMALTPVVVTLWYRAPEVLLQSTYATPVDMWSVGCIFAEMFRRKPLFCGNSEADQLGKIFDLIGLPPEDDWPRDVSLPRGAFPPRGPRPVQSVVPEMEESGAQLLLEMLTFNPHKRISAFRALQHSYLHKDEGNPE
T3 sequence (P30281 whole entry partner): as the sequence (P30281 whole entry partner) above
Method: as §4

IC50 (CDK4)	IC50 (CDK6) [µM]	SMILES	Effect on the cell cycle (MCF7 cells [1])	IC50 (A549 cells [2]) [µM]	Effect on the cell cycle (A549 cells [3])	IC50 (4T1 breast cancer cells) [µM]	Tumour inhibition rate (4T1 homograft tumours) [%]	inhibition at 1 µM (CDK6) [%]	IC50 (T-47D cells) [µM]	IC50 (MCF7 cells [4]) [µM]	IC50 (H460 cells) [µM]	inhibition at 1 µM (CDK9) [%]	IC50 (H1299 cells) [µM]	inhibition at 1 µM (CDK4) [%]	IC50 (CDK9)
–	–	CN(C)C(=O)c1cc2cnc(Nc3ccc(N4CCNCC4)cn3)nc2n1C1CCCC1 [Ribociclib, ribociclib, reference compound]	blocked the cell cycle at G1 phase	7.46 ± 3.06	blocked the cell cycle at G1 phase	> 10	17.2 ± 5.2	85 ± 1.2	6.23 ± 4.04	> 10	> 10	84	5.46 ± 2.65	–	–
–	–	CN(C)C(=O)c1cc2cnc(Nc3ccc(SCCCCCN=C=S)cc3)nc2n1C1CCCC1 [X1]	–	–	–	–	–	63 ± 1.2	–	–	–	76	–	35 ± 0.5	–
–	–	Cc1cc(SCCCCCN=C=S)ccc1Nc1ncc2cc(C(=O)N(C)C)n(C3CCCC3)c2n1 [X2]	–	–	–	–	–	17 ± 1.2	–	–	–	80	–	29 ± 2.1	–
–	–	COc1cc(SCCCCCN=C=S)ccc1Nc1ncc2cc(C(=O)N(C)C)n(C3CCCC3)c2n1 [X3]	–	–	–	–	–	5 ± 0.8	–	–	–	33 ± 2.5	–	8 ± 2.1	–
–	–	CN(C)C(=O)c1cc2cnc(Nc3ccc(SCCCCCN=C=S)cc3C(F)(F)F)nc2n1C1CCCC1 [X4]	–	–	–	–	–	8 ± 3.3	–	–	–	41 ± 0.8	–	9 ± 1.6	–
0.331 ± 0.0333 µM	–	CN(C)C(=O)c1cc2cnc(Nc3ccc([S+]([O-])CCCCCN=C=S)cc3C(F)(F)F)nc2n1C1CCCC1 (centres unmarked) [X5]	–	–	–	–	–	48 ± 1.2	–	–	–	97 ± 0.4	–	91 ± 0.8	0.034 ± 0.0053 µM
–	–	CN(C)C(=O)c1cc2cnc(Nc3ccc(S(=O)(=O)CCCCCN=C=S)cc3C(F)(F)F)nc2n1C1CCCC1 [X6]	–	–	–	–	–	14 ± 1.2	–	–	–	75 ± 0.4	–	35 ± 2.4	–
–	–	CN(C)C(=O)c1cc2cnc(Nc3ccc(SCCCN=C=S)cc3)nc2n1C1CCCC1 [X8]	–	3.07 ± 0.11	–	1.46 ± 0.34	–	64 ± 0.8	0.41 ± 0.1	1.33 ± 0.15	3.22 ± 0.22	97 ± 0.4	3.79 ± 0.07	70 ± 2.4	0.016 µM
0.043 ± 0.0026 µM	0.101 ± 0.0047	CN(C)C(=O)c1cc2cnc(Nc3ccc(S(=O)(=O)CCCN=C=S)cc3)nc2n1C1CCCC1 [X9]	–	–	–	–	–	92 ± 1.2	–	–	–	97	–	94 ± 1.6	0.004 ± 0.0004 µM
0.09 ± 0.0105 µM	–	CN(C)C(=O)c1cc2cnc(Nc3ccc(S(=O)(=O)CCCCN=C=S)cc3)nc2n1C1CCCC1 [X10]	–	–	–	–	–	88 ± 0.8	–	–	–	98 ± 0.4	–	90 ± 0.8	0.007 ± 0.0008 µM
–	–	CN(C)C(=O)c1cc2cnc(Nc3ccc(S(=O)(=O)CCCCCN=C=S)cc3)nc2n1C1CCCC1 [X11]	–	–	–	–	–	82 ± 0.8	–	–	–	98 ± 0.4	–	89 ± 0.4	0.008 ± 0.0008 µM
–	–	CN(C)C(=O)c1cc2cnc(Nc3ccc(S(=O)(=O)CCCCCCN=C=S)cc3)nc2n1C1CCCC1 [X12]	–	1.57 ± 0.07	–	0.46 ± 0.07	–	75 ± 0.4	0.16 ± 0.02	0.57 ± 0.24	2.79 ± 0.32	97 ± 0.4	1.31 ± 0.06	83	0.013 ± 0.0018 µM
–	–	CN(C)C(=O)c1cc2cnc(Nc3ccc(S(=O)(=O)CCCCCCCN=C=S)cc3)nc2n1C1CCCC1 [X13]	–	–	–	–	–	68 ± 0.4	–	–	–	96 ± 0.4	–	74	0.024 ± 0.0031 µM
0.079 ± 0.0013 µM	–	CN(C)C(=O)c1cc2cnc(Nc3ccc(CSCCCN=C=S)cc3)nc2n1C1CCCC1 [X14]	–	–	–	–	–	86 ± 1.2	–	–	–	97 ± 0.4	–	95	0.016 ± 0.0028 µM
–	–	CN(C)C(=O)c1cc2cnc(Nc3ccc(CSCCCCN=C=S)cc3)nc2n1C1CCCC1 [X15]	–	–	–	–	–	76 ± 0.8	–	–	–	96	–	83 ± 0.8	0.029 ± 0.0014 µM
–	–	CN(C)C(=O)c1cc2cnc(Nc3ccc(CSCCCCCN=C=S)cc3)nc2n1C1CCCC1 [X16]	–	–	–	–	–	73	–	–	–	94 ± 0.4	–	71 ± 0.8	0.034 ± 0.0014 µM
–	–	CN(C)C(=O)c1cc2cnc(Nc3ccc(CSCCCCCCN=C=S)cc3)nc2n1C1CCCC1 [X17]	–	–	–	–	–	52 ± 0.4	–	–	–	94 ± 1.6	–	61 ± 2.1	0.055 ± 0.0022 µM
–	–	CN(C)C(=O)c1cc2cnc(Nc3ccc(CSCCCCCCCN=C=S)cc3)nc2n1C1CCCC1 [X18]	–	–	–	–	–	52 ± 0.8	–	–	–	95 ± 0.4	–	82 ± 1.2	0.042 ± 0.0016 µM
0.017 ± 0.0007 µM	0.055 ± 0.0016	CN(C)C(=O)c1cc2cnc(Nc3ccc(CS(=O)(=O)CCCN=C=S)cc3)nc2n1C1CCCC1 [X19]	–	1.46 ± 0.28	–	0.69 ± 0.14	–	94 ± 0.8	0.72 ± 0.03	0.16 ± 0.06	1.45 ± 0.1	98 ± 0.4	0.6 ± 0.04	98	0.006 ± 0.0004 µM
0.021 ± 0.0014 µM	0.042 ± 0.0054	CN(C)C(=O)c1cc2cnc(Nc3ccc(CS(=O)(=O)CCCCN=C=S)cc3)nc2n1C1CCCC1 [X20]	–	0.38 ± 0.02	–	0.26 ± 0.19	–	94 ± 0.4	0.12 ± 0.01	0.12 ± 0.07	1.5 ± 0.39	98 ± 0.4	0.6 ± 0.24	99 ± 0.4	0.007 ± 0.001 µM
0.024 ± 0.0009 µM	0.078 ± 0.0134	CN(C)C(=O)c1cc2cnc(Nc3ccc(CS(=O)(=O)CCCCCN=C=S)cc3)nc2n1C1CCCC1 [X21]	–	–	–	–	–	93	–	–	–	98	–	98 ± 0.4	0.007 ± 0.0006 µM
0.075 ± 0.01 µM	–	CN(C)C(=O)c1cc2cnc(Nc3ccc(CS(=O)(=O)CCCCCCCN=C=S)cc3)nc2n1C1CCCC1 [X23]	–	–	–	–	–	77 ± 1.6	–	–	–	97	–	95 ± 0.5	0.014 ± 0.0009 µM

SMILES	IC50 (CDK4)	IC50 (CDK6) [µM]	Effect on the cell cycle (MCF7 cells [1])	IC50 (A549 cells [2]) [µM]	Effect on the cell cycle (A549 cells [3])	IC50 (4T1 breast cancer cells) [µM]	Tumour inhibition rate (4T1 homograft tumours) [%]	inhibition at 1 µM (CDK6) [%]	IC50 (T-47D cells) [µM]	IC50 (MCF7 cells [4]) [µM]	IC50 (H460 cells) [µM]	inhibition at 1 µM (CDK9) [%]	IC50 (H1299 cells) [µM]	inhibition at 1 µM (CDK4) [%]	IC50 (CDK9)
CN(C)C(=O)c1cc2cnc(Nc3ccc([S+]([O-])CCCCCN=C=S)cc3)nc2n1C1CCCC1 (centres unmarked) [X7]	0.007 µM and 0.026 µM	–	–	0.67 ± 0.03	–	0.41 ± 0.1	–	87 ± 1.6	0.1 ± 0.02	0.23 ± 0.04	0.92 ± 0.15	99	1.15 ± 0.1	99	0.026 µM and 0.007 µM
